Columns and labels:
Experiment in all cases: biochemical
Design in all cases: Invitrogen SelectScreen kinase panel, percent inhibition at 1 uM, ATP at Km
Conditions in all cases: read-out: Invitrogen KSS %Inh at 1 µM
[1] = target: PAK2 (PAK65) (Homo sapiens, UniProt Q13177)
Procedure: (§1) The METi and RAFi were screened against kinase panels (SelectScreen, Invitrogen; University of Dundee, Division of Signal Transduction Therapy, UK; Upstate Biotechnology/Millipore, Billerica, MA). In these selectivity assays the concentration of ATP was set to the Km value of ATP for each kinase tested to allow for a relative potency comparison between the various kinases. The compounds were tested at 1 µM final concentration. […] Supplementary file pone.0039653.s002.pdf: Figure S2 Kinase Selectivity Screen of RAFi. (A) Kinase selectivity screen (KSS) performed at University of Dundee (Division of Signal Transduction Therapy). Values in % inhibition of phosphorylation given 1 µM of RAFi compared to control. (B) KSS performed at Invitrogen (Selectscreen Service) compared to control. Values in % inhibition of phosphorylation given 1 µM of RAFi. (C) Cell based dose response kinase inhibition of indicated kinases by RAFi. (PDF) Click here for additional data file.

[2] = target: DAPK3 (ZIPK) (Homo sapiens, UniProt O43293)
Procedure: as §1

[3] = target: STK22B (TSSK2) (Homo sapiens, UniProt Q96PF2)
Procedure: as §1

[4] = target: PAK4 (Homo sapiens, UniProt O96013)
Procedure: as §1

[5] = target: TYRO3 (RSE) (Homo sapiens, UniProt Q06418)
Procedure: as §1

[6] = target: ABL1 T315I (Homo sapiens, UniProt P00519, T315I)
Procedure: as §1

[7] = target: BMX (Homo sapiens, UniProt P51813)
Procedure: as §1

[8] = target: FGR (Homo sapiens, UniProt P09769)
Procedure: as §1

[9] = target: SGK (SGK1) (Homo sapiens, UniProt O00141)
Procedure: as §1

[10] = target: MAPK12 (p38 gamma) (Homo sapiens, UniProt P53778)
Procedure: as §1

[11] = target: CHEK2 (CHK2) (Homo sapiens, UniProt O96017)
Procedure: as §1

[12] = target: MAP3K8 (COT) (Homo sapiens, UniProt P41279)
Procedure: as §1

[13] = target: RPS6KA1 (RSK1) (Homo sapiens, UniProt Q15418)
Procedure: as §1

[14] = target: MAP2K6 (MKK6) (Homo sapiens, UniProt P52564)
Procedure: as §1

[15] = target: EGFR (ErbB1) (Homo sapiens, UniProt P00533)
Procedure: as §1

[16] = target: T1, PRKCB1 (PKC beta I) (Homo sapiens, UniProt P05771)
T1 construct: gene PRKCB; isoform beta I
Procedure: as §1

[17] = target: CSNK2A1 (CK2 alpha 1) (Homo sapiens, UniProt P68400)
Procedure: as §1

[18] = target: AKT1 (PKB alpha) (Homo sapiens, UniProt P31749)
Procedure: as §1

[19] = target: T2, PDK1 (Homo sapiens, UniProt O15530)
T2 construct: gene PDPK1
Procedure: as §1

[20] = target: YES1 (Homo sapiens, UniProt P07947)
Procedure: as §1

[21] = target: CAMK4 (CaMKIV) (Homo sapiens, UniProt Q16566)
Procedure: as §1

[22] = target: JAK3 (Homo sapiens, UniProt P52333)
Procedure: as §1

Chain of STK22B (TSSK2) (Q96PF2 whole entry): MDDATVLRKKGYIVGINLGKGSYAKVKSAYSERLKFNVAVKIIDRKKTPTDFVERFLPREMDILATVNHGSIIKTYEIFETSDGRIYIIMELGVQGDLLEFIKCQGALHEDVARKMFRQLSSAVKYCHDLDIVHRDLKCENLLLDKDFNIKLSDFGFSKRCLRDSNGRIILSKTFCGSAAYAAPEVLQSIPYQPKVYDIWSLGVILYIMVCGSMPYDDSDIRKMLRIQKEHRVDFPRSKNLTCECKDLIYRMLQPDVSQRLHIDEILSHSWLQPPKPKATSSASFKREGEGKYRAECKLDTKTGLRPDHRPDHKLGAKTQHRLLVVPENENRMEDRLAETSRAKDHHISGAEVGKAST
Chain of BMX (P51813 whole entry): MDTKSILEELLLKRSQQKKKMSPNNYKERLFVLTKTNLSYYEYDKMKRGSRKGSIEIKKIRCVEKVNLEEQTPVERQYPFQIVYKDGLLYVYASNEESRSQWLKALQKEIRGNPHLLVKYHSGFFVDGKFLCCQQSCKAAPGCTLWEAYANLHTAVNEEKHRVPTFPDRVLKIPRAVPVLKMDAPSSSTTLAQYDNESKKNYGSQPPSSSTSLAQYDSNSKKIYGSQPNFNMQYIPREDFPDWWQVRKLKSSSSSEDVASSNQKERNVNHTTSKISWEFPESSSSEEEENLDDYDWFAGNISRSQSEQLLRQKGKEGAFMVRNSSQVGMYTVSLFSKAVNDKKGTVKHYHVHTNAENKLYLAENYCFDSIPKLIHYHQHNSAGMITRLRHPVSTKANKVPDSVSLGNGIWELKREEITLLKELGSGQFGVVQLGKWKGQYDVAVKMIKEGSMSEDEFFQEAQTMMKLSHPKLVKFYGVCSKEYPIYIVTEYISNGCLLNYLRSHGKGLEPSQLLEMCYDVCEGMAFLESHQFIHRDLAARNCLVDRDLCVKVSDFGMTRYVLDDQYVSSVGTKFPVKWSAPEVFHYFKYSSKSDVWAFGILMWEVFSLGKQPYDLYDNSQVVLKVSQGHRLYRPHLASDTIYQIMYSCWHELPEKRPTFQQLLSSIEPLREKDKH
Chain of EGFR (ErbB1) (P00533 whole entry): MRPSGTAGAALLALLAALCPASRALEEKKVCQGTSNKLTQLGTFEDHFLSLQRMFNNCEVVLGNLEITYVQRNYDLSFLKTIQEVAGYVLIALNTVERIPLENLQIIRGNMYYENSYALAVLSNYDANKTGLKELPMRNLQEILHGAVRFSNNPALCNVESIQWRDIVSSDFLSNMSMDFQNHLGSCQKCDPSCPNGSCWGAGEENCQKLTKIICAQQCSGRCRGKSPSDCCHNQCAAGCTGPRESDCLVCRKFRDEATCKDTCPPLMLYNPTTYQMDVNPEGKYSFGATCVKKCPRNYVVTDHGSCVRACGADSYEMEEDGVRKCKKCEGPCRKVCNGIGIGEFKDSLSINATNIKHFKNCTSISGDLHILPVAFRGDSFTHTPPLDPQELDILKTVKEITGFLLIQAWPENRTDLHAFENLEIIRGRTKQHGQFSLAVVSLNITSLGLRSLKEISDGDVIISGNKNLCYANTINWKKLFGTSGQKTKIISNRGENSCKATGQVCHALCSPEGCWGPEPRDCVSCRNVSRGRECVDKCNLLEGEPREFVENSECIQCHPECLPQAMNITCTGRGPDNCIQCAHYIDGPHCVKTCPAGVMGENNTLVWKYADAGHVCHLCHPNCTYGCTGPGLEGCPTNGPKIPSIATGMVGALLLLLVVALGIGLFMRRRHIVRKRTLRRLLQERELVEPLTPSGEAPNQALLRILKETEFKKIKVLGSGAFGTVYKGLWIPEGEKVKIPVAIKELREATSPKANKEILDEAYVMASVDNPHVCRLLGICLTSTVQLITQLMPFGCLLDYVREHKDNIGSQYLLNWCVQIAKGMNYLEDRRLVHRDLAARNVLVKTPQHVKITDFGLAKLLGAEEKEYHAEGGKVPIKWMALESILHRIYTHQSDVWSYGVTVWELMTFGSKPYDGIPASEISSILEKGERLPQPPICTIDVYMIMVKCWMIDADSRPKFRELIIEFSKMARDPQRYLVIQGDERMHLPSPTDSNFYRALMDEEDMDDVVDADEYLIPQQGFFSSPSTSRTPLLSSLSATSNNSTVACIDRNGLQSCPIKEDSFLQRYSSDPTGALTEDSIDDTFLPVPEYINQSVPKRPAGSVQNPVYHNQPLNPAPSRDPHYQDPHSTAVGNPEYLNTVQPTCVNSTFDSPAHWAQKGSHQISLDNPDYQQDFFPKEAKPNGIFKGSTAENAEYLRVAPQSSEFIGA
Chain of CHEK2 (CHK2) (O96017 whole entry): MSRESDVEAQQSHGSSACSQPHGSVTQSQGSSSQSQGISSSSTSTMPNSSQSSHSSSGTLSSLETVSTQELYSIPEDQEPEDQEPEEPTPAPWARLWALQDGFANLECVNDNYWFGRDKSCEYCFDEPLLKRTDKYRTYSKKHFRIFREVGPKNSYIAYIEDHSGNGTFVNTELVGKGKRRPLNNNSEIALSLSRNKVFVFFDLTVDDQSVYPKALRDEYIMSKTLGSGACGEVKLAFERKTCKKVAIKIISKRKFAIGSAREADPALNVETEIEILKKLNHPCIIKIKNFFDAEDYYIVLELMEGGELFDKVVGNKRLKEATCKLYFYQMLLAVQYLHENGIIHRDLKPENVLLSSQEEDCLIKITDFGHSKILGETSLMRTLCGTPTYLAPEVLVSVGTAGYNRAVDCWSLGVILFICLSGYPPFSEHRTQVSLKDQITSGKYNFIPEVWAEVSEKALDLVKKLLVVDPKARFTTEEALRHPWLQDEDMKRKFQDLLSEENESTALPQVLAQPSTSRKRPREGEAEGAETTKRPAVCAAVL
Chain of DAPK3 (ZIPK) (O43293 whole entry): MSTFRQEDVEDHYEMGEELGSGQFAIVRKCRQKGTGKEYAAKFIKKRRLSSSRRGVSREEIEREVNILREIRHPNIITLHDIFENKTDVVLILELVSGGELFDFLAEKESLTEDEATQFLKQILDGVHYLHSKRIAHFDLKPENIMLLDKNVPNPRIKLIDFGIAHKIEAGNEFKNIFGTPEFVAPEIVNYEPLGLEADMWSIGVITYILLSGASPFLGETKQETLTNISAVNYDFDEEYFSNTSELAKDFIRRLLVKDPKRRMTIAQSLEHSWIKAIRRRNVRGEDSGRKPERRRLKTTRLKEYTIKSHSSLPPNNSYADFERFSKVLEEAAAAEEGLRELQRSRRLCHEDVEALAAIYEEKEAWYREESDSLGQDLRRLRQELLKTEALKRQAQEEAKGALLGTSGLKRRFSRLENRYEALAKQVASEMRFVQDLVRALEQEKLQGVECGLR
Chain of RPS6KA1 (RSK1) (Q15418 whole entry): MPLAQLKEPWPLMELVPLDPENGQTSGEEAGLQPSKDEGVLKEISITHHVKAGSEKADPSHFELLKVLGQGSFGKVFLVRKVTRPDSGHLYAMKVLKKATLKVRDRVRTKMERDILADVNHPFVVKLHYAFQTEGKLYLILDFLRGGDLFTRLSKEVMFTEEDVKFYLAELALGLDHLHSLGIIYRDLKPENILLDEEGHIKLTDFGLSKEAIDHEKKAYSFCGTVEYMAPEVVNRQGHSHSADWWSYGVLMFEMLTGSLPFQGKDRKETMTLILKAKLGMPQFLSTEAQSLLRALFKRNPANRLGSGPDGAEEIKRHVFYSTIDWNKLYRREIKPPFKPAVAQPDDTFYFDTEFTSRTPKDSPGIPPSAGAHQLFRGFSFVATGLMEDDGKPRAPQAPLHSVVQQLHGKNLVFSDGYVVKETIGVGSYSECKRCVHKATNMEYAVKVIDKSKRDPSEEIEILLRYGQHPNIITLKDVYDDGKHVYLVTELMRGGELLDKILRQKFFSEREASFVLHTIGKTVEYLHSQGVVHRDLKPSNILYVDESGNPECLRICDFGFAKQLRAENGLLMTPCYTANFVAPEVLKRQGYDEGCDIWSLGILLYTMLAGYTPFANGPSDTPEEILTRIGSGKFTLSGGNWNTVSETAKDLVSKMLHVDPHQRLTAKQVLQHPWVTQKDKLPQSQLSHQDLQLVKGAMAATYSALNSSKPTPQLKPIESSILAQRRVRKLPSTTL
Chain of SGK (SGK1) (O00141 whole entry): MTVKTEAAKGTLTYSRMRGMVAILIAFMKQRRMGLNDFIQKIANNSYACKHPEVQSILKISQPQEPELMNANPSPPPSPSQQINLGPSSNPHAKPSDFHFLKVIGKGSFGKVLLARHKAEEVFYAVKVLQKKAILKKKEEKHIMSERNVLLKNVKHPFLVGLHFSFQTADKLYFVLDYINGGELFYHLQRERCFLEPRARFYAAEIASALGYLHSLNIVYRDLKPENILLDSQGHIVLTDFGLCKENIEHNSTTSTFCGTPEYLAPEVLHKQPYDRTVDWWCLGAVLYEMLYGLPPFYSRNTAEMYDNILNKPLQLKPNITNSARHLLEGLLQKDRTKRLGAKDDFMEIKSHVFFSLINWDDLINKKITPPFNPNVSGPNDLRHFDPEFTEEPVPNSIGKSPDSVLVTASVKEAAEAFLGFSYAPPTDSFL
Chain of MAP2K6 (MKK6) (P52564 whole entry): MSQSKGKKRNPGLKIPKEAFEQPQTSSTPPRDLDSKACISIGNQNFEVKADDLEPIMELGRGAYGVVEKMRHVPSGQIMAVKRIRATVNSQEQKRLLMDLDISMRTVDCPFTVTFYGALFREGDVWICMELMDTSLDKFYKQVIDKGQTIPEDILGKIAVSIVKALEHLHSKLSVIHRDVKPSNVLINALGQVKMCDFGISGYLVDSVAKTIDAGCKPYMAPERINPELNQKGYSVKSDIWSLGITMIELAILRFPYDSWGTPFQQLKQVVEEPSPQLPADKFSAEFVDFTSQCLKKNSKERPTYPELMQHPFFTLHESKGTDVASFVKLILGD

inhibition at 1 µM [1]: 3%
inhibition at 1 µM [2]: 5%
inhibition at 1 µM [3]: 2%
inhibition at 1 µM [4]: 1%
inhibition at 1 µM [5]: 10%
inhibition at 1 µM [6]: -21%
inhibition at 1 µM [7]: -3%
inhibition at 1 µM [8]: 2%
inhibition at 1 µM [9]: 7%
inhibition at 1 µM [10]: 2%
inhibition at 1 µM [11]: 7%
inhibition at 1 µM [12]: 24%
inhibition at 1 µM [13]: 6%
inhibition at 1 µM [14]: 12%
inhibition at 1 µM [15]: 5%
inhibition at 1 µM [16]: 36%
inhibition at 1 µM [17]: -1%
inhibition at 1 µM [18]: 5%
inhibition at 1 µM [19]: 13%
inhibition at 1 µM [20]: 16%
inhibition at 1 µM [21]: -5%
inhibition at 1 µM [22]: 9%
SMILES: N#CCCNc1nccc(-c2cn(CC(F)F)nc2-c2cnc3[nH]ccc3c2)n1 [RAFi, PF-04880594]
